BigSolDB 2.1

CC(S)C(=O)NCC(=O)O (stereo not given)
solubility (mole fraction)
Settings | 273.15 K | 278.15 K | 283.15 K | 288.15 K | 293.15 K | 298.15 K | 303.15 K | 308.15 K | 313.15 K | 318.15 K
in acetonitrile | 0.00946 | 0.0105 | 0.0115 | 0.0126 | 0.0138 | 0.0151 | 0.0165 | 0.018 | 0.0196 | 0.0212
in isobutanol | 0.0119 | 0.0141 | 0.0166 | 0.0191 | 0.0217 | 0.0247 | 0.0281 | 0.0321 | 0.0365 | 0.0413
in n-butanol | 0.0251 | 0.0311 | 0.0379 | 0.0451 | 0.0529 | 0.0614 | 0.0709 | 0.0811 | 0.0918 | 0.103
in toluene | 0.00033 | 0.00037 | 0.00041 | 0.00045 | 0.0005 | 0.00056 | 0.00062 | 0.00069 | 0.00077 | 0.00087
